# Experimental data taken from publication PMC10287555, “Camonsertib in DNA damage response-deficient advanced solid tumors: phase 1 trial results” (Nature Medicine, 2023).
# Entries after “also recorded” stand apart in the source; their conditions may differ.
# Assays:
# Effect on QT interval = experiment: Effect on QT interval; set-up: species or system human; conditions: in vivo
# Method: (§1) Tolerability and safety of camonsertib was evaluated by assessment of AEs, TEAEs, serious adverse events (SAEs), DLTs, concomitant medications and procedures, physical examinations, vital sign measurements, clinical safety laboratory evaluations (hematology, chemistry and urinalysis), ECOG performance status scores and electrocardiograms.
# [1] = Treatment-related adverse events (TRAEs), TRESR; format: in vivo, human
# Method: as §1
# All safety and efficacy endpoints were summarized with descriptive statistics. Safety data were summarized using the safety population, which consisted of all patients who received at least one dose of RP-3500. The DLT rate was based on the DLT-evaluable population, which included those patients in dose-escalation cohorts (M1a and M1b only) receiving ≥80% of planned doses of camonsertib, who completed all required safety evaluations and were observed through the end of cycle 1 or patients who experienced a DLT. Due to the different number of dose levels expected and the exploratory nature of the phase 1 study, anti-tumor activity parameters were primarily based on patients who received ≥1 dose of RP-3500 and had ≥1 post-baseline tumor assessment by RECIST 1.1 and/or GCIG CA-125 or PCWG3 PSA criteria, with an initial dose level of >100 mg d^−1 (dose level predicted to achieve efficacious exposure), as defined in the statistical analysis plan. Additional subgroups based on tumor types or genotypes of interest were based on this efficacy analysis set. […] Patients were, therefore, enrolled in the study and endpoints assessed regardless of sex, gender and race. No formal statistical tests were performed in this study. However, nominal P values (two-sided) were provided for the hypothesis-generating purpose of selected exploratory endpoints, without adjusting for multiplicity. A log-rank test was used in between-group comparisons for the time-to-event endpoints (PFS and DOT), and Fisher’s exact test was used in between-group comparisons for the binary endpoints (CBR, MR, etc.).
# [2] = 3/4 schedule (n = 95), all grades
# [3] = 5/2 schedule (n = 25), all grades
smiles,measurement,setting,value
C[C@@H]1COCCN1c1cc([C@]2(O)C[C@H]3CC[C@@H](C2)O3)c2cnn(-c3cc[nH]n3)c2n1 [camonsertib],Effect on QT interval (ΔQTcF),Effect on QT interval,No effect on QT interval was observed; also recorded: do not affect
same,Patients who discontinued due to treatment-related grade 3 anemia,"[1]; 1/120, after four cycles",0.8%
same,"Anemia, all grades",[1]; 3/4 schedule,64%
same,"Anemia, grade 3",[1]; 3/4 schedule,26%
same,"Fatigue TRAE, grade 3",[1]; 3/4 schedule (n = 95),2.1%
same,"Fatigue TRAE, overall",[1]; 3/4 schedule (n = 95),27.4%
same,"Neutropenia TRAE, grade 3",[1]; 3/4 schedule (n = 95),10.5%
same,"Neutropenia TRAE, grade 4",[1]; 3/4 schedule (n = 95),3.2%
same,"Neutropenia TRAE, overall",[1]; 3/4 schedule (n = 95),26.3%
same,"Thrombocytopenia TRAE, grade 3",[1]; 3/4 schedule (n = 95),6.3%
same,"Thrombocytopenia TRAE, grade 4",[1]; 3/4 schedule (n = 95),1.1%
same,"Thrombocytopenia TRAE, overall",[1]; 3/4 schedule (n = 95),23.2%
same,Any TRAE,[1]; [2],82 (86.3) n (%)
same,TRAE: Anemia,[1]; [2],61 (64.2) n (%)
same,TRAE: Decreased appetite,[1]; [2],14 (14.7) n (%)
same,TRAE: Diarrhea,[1]; [2],13 (13.7) n (%)
same,TRAE: Dysgeusia,[1]; [2],5 (5.3) n (%)
same,TRAE: Dyspnea,[1]; [2],6 (6.3) n (%)
same,TRAE: Fatigue,[1]; [2],26 (27.4) n (%)
same,TRAE: Nausea,[1]; [2],23 (24.2) n (%)
same,TRAE: Neutrophil count decreased/neutropenia,[1]; [2],25 (26.3) n (%)
same,TRAE: Platelet count decreased/thrombocytopenia,[1]; [2],22 (23.2) n (%)
same,TRAE: Vomiting,[1]; [2],9 (9.5) n (%)
same,TRAE: White blood cell count decreased,[1]; [2],11 (11.6) n (%)
same,Any TRAE,"[1]; 3/4 schedule (n = 95), grade 3",30 (31.6) n (%)
same,TRAE: Anemia,"[1]; 3/4 schedule (n = 95), grade 3",25 (26.3) n (%)
same,TRAE: Decreased appetite,"[1]; 3/4 schedule (n = 95), grade 3",0 n (%)
same,TRAE: Diarrhea,"[1]; 3/4 schedule (n = 95), grade 3",0 n (%)
same,TRAE: Dysgeusia,"[1]; 3/4 schedule (n = 95), grade 3",0 n (%)
same,TRAE: Dyspnea,"[1]; 3/4 schedule (n = 95), grade 3",0 n (%)
same,TRAE: Fatigue,"[1]; 3/4 schedule (n = 95), grade 3",2 (2.1) n (%)
same,TRAE: Nausea,"[1]; 3/4 schedule (n = 95), grade 3",0 n (%)
same,TRAE: Neutrophil count decreased/neutropenia,"[1]; 3/4 schedule (n = 95), grade 3",10 (10.5) n (%)
same,TRAE: Platelet count decreased/thrombocytopenia,"[1]; 3/4 schedule (n = 95), grade 3",6 (6.3) n (%)
same,TRAE: Vomiting,"[1]; 3/4 schedule (n = 95), grade 3",0 n (%)
same,TRAE: White blood cell count decreased,"[1]; 3/4 schedule (n = 95), grade 3",4 (4.2) n (%)
same,Any TRAE,"[1]; 3/4 schedule (n = 95), grade 4",4 (4.2) n (%)
same,TRAE: Anemia,"[1]; 3/4 schedule (n = 95), grade 4",0 n (%)
same,TRAE: Decreased appetite,"[1]; 3/4 schedule (n = 95), grade 4",0 n (%)
same,TRAE: Diarrhea,"[1]; 3/4 schedule (n = 95), grade 4",0 n (%)
same,TRAE: Dysgeusia,"[1]; 3/4 schedule (n = 95), grade 4",0 n (%)
same,TRAE: Dyspnea,"[1]; 3/4 schedule (n = 95), grade 4",0 n (%)
same,TRAE: Fatigue,"[1]; 3/4 schedule (n = 95), grade 4",0 n (%)
same,TRAE: Nausea,"[1]; 3/4 schedule (n = 95), grade 4",0 n (%)
same,TRAE: Neutrophil count decreased/neutropenia,"[1]; 3/4 schedule (n = 95), grade 4",3 (3.2) n (%)
same,TRAE: Platelet count decreased/thrombocytopenia,"[1]; 3/4 schedule (n = 95), grade 4",1 (1.1) n (%)
same,TRAE: Vomiting,"[1]; 3/4 schedule (n = 95), grade 4",0 n (%)
same,TRAE: White blood cell count decreased,"[1]; 3/4 schedule (n = 95), grade 4",0 n (%)
same,"Nausea TRAE, overall","[1]; 3/4 schedule (n = 95), all grade <3",24.2%
same,"Anemia, all grades",[1]; 5/2 schedule,80%
same,"Anemia, grade 3",[1]; 5/2 schedule,52%
same,Any TRAE,[1]; [3],22 (88.0) n (%)
same,TRAE: Anemia,[1]; [3],20 (80.0) n (%)
same,TRAE: Decreased appetite,[1]; [3],4 (16.0) n (%)
same,TRAE: Diarrhea,[1]; [3],0 n (%)
same,TRAE: Dysgeusia,[1]; [3],1 (4.0) n (%)
same,TRAE: Dyspnea,[1]; [3],5 (20.0) n (%)
same,TRAE: Fatigue,[1]; [3],7 (28.0) n (%)
same,TRAE: Nausea,[1]; [3],3 (12.0) n (%)
same,TRAE: Neutrophil count decreased/neutropenia,[1]; [3],6 (24.0) n (%)
same,TRAE: Platelet count decreased/thrombocytopenia,[1]; [3],7 (28.0) n (%)
same,TRAE: Vomiting,[1]; [3],3 (12.0) n (%)
same,TRAE: White blood cell count decreased,[1]; [3],1 (4.0) n (%)
same,Any TRAE,"[1]; 5/2 schedule (n = 25), grade 3",14 (56.0) n (%)
same,TRAE: Anemia,"[1]; 5/2 schedule (n = 25), grade 3",13 (52.0) n (%)
same,TRAE: Decreased appetite,"[1]; 5/2 schedule (n = 25), grade 3",0 n (%)
same,TRAE: Diarrhea,"[1]; 5/2 schedule (n = 25), grade 3",0 n (%)
same,TRAE: Dysgeusia,"[1]; 5/2 schedule (n = 25), grade 3",0 n (%)
same,TRAE: Dyspnea,"[1]; 5/2 schedule (n = 25), grade 3",0 n (%)
same,TRAE: Fatigue,"[1]; 5/2 schedule (n = 25), grade 3",1 (4.0) n (%)
same,TRAE: Nausea,"[1]; 5/2 schedule (n = 25), grade 3",0 n (%)
same,TRAE: Neutrophil count decreased/neutropenia,"[1]; 5/2 schedule (n = 25), grade 3",3 (12.0) n (%)
same,TRAE: Platelet count decreased/thrombocytopenia,"[1]; 5/2 schedule (n = 25), grade 3",2 (8.0) n (%)
same,TRAE: Vomiting,"[1]; 5/2 schedule (n = 25), grade 3",0 n (%)
same,TRAE: White blood cell count decreased,"[1]; 5/2 schedule (n = 25), grade 3",0 n (%)
same,Any TRAE,"[1]; 5/2 schedule (n = 25), grade 4",1 (4.0) n (%)
same,TRAE: Anemia,"[1]; 5/2 schedule (n = 25), grade 4",0 n (%)
same,TRAE: Decreased appetite,"[1]; 5/2 schedule (n = 25), grade 4",0 n (%)
same,TRAE: Diarrhea,"[1]; 5/2 schedule (n = 25), grade 4",0 n (%)
same,TRAE: Dysgeusia,"[1]; 5/2 schedule (n = 25), grade 4",0 n (%)
same,TRAE: Dyspnea,"[1]; 5/2 schedule (n = 25), grade 4",0 n (%)
same,TRAE: Fatigue,"[1]; 5/2 schedule (n = 25), grade 4",0 n (%)
same,TRAE: Nausea,"[1]; 5/2 schedule (n = 25), grade 4",0 n (%)
same,TRAE: Neutrophil count decreased/neutropenia,"[1]; 5/2 schedule (n = 25), grade 4",1 (4.0) n (%)
same,TRAE: Platelet count decreased/thrombocytopenia,"[1]; 5/2 schedule (n = 25), grade 4",1 (4.0) n (%)
same,TRAE: Vomiting,"[1]; 5/2 schedule (n = 25), grade 4",0 n (%)
same,TRAE: White blood cell count decreased,"[1]; 5/2 schedule (n = 25), grade 4",0 n (%)
same,Tolerability,[1]; 120 patients,well tolerated
same,Anemia TRAE of any grade,[1]; all dose levels/schedules,67.5%
same,"Anemia, grade 3 (most common drug-related toxicity)",[1]; all patients,32%
same,"Anemia, grade 4",[1]; both schedules,no grade 4 anemia was observed
